From patent publication US4829078A, “3-phenoxy (or phenylthio)--cyclopentanecarbonylamino acid analogues” (Ono Pharmaceutical Co., Ltd., priority 1985, dated 1989)

Legend:
[1] = system: organ slice of cat cerebral cortex; assay: inhibition test on cerebral edema using organ slice of cat cerebral cortex (NaHCO3-stimulated swelling); assay type: cell-based; conditions: Felis catus, 50 min; gray matter slices, 50 minutes at 37° C., pH 7.4, NaHCO3 as stimulating agent of swelling; read-out: Inhibitory activity on cerebral edema (IC50)
Protocol: The inhibition test on cerebral edema using organ slice of cat cerebral cortex
The test was carried out by the method described in Journal of Medicinal Chemistry, Vol. 25 (No. 5), 567 (1982).
That is, brain was isolated from a cat (weighing 2≈4 kg), slices of about 1 mm in thickness was prepared, the white matter substance was removed, and the gray matter substance (100≈150 mg a test) was used for a sample. The sample was added to the following incubation medium and incubated for 50 minutes at 37° C. After the incubation, the sample was immediately weighed again to determine the swelling weight of the sample. incubation medium (osmotic pressure, 280≈290 mOsm/l)
1. Hepes Buffer (pH 7.4) . . . 2.365 ml
adjusted to pH 7.4 by NaOH
2. test compounds [dissolved in the presence of tris(hydroxymethyl)aminomethane] or water . . . 0.01 ml
3. 0.2M NaHCO3 . . . 0.125 ml (dissolved by Hepes Buffer, giving the final concentration of 10 mM in medium) […]
(C) A percentage of swelling when a slice sample was added to incubation medium comprising Hepes Buffer, the test compounds in various concentrations and NaHCO3. Above-mentioned (A), (B) and (C) were determined. Inhibition percentage of the test compounds was calculated by the following equation: [formula] IC50 value was determined by dose-response curve as a concentration in which inhibition percentage was 50.

[2] = acute toxicity test in mice by intravenous administration; conditions: mouse, in vivo
Protocol: For example, in the acute toxicity test in mice by intravenous administration, LD50 value of compounds of example 1 and 1-(c) is the dose of between 200 and 400 mg/kg.

Structure (SMILES) | IC50 [1] [µM] | LD50 [2] [mg/kg]
C[C@H](NC(=O)[C@H]1CC[C@H](Oc2ccc(C(=O)c3ccccc3)c(Cl)c2Cl)C1)C(=O)O [1-(c), N-{(1S,3S)-3-(2,3-dichloro-4-benzoylphenoxy)cyclopentanecarbonyl}alanine] | 0.5 | 200 to 400
O=C(O)CC[C@H](NC(=O)[C@H]1CC[C@H](Oc2ccc(C(=O)c3ccccc3)c(Cl)c2Cl)C1)C(=O)O [Example 1, N-{(1S,3S)-3-(2,3-dichloro-4-benzoylphenoxy)cyclopentanecarbonyl}glutamic acid] | 3 | 200 to 400
